In patent publication US12643910B2, “Substituted pyrazolo[3,4-b]pyridines as ectonucleotide pyrophosphatase/phosphodiesterase 1 (ENPP1) modulators” (SANFORD BURNHAM PREBYS MEDICAL DISCOVERY INSTITUTE, priority 2019, dated 2026):

Key:
ENPP3 = target: T1, ENPP3 (Homo sapiens, UniProt O14638); assay: ENPP3 Km ATP assay; format: biochemical; settings: ATP at Km
T1 sequence (O14638 1-875): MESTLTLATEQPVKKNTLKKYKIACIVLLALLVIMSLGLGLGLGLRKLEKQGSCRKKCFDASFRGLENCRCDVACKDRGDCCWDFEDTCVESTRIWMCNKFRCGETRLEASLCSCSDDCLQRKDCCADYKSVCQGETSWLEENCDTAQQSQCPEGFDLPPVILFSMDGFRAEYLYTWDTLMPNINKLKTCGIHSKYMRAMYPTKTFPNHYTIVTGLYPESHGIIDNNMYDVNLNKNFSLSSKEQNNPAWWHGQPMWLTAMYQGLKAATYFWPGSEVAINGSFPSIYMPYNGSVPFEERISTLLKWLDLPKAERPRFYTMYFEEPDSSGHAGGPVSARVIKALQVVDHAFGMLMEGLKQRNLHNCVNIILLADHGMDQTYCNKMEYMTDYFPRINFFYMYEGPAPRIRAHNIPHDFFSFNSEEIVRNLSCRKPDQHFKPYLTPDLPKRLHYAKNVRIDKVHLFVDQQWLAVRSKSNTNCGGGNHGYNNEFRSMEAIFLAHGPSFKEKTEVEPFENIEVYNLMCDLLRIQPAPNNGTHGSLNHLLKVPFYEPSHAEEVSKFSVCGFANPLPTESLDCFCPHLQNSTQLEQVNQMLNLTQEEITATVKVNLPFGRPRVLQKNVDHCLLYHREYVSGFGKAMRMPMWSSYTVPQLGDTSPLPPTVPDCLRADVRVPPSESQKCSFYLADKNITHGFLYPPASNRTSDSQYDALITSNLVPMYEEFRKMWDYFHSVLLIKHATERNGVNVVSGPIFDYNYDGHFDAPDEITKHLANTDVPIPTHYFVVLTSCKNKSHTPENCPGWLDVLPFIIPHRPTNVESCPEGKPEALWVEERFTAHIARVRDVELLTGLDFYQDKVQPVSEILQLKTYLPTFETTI

human ENPP1 = target: T2, human ENPP1 (Homo sapiens, UniProt P22413); assay: ENPP1 assay with ATP substrate (Transcreener AMP2/GMP2 TR-FRET); format: biochemical; settings: 1 hour at room temperature
T2 construct: made in house
T2 sequence (P22413 1-925): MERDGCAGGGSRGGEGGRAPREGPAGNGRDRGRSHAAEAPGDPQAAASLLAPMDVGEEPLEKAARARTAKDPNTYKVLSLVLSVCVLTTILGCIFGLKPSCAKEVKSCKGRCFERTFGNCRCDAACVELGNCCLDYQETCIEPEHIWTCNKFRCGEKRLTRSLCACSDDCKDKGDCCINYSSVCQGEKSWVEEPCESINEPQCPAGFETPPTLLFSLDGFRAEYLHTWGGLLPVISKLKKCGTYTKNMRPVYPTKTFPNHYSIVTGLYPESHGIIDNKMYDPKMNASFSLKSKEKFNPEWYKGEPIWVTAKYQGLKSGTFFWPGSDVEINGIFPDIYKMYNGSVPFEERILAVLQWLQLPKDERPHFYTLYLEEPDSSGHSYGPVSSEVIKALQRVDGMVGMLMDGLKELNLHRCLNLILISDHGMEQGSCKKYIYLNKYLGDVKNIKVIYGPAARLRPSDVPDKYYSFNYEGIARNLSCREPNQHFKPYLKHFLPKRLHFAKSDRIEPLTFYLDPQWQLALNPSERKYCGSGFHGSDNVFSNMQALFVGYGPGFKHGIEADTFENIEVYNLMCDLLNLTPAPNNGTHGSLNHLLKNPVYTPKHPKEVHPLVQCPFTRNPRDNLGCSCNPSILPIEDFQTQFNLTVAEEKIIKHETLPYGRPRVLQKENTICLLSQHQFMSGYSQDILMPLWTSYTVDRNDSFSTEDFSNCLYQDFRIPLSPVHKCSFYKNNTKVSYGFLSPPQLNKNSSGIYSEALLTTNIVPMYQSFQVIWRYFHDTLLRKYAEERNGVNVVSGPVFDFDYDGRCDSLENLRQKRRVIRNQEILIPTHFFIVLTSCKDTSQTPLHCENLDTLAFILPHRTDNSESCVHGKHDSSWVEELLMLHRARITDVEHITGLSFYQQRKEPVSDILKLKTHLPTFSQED
Outline: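 Reaction ran 1 h at room temperature in pH 7.5 Tris with MgCl2, TCEP, Tween 20 and 1% DMSO. ATP was added as a 300 nM stock and enzyme as an 8.5 μM stock. After EDTA stop, AMP was read by TR-FRET tracer displacement. Percent inhibition used enzyme/no-enzyme controls; IC50 was fitted with a variable slope.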

Structure (SMILES)	IC50 (ENPP3)	IC50 (human ENPP1)
NS(=O)(=O)c1ccc(CNc2nc(N3CCOCC3)nc3scc(-c4ccccc4)c23)cc1 [Example 1.38, 4-(((2-Morpholino-5-phenylthieno[2,3-d]pyrimidin-4-yl)amino)methyl)-benzenesulfonamide]	< 0.1 µM	< 0.1 µM
Nc1nc(NCc2ccc(S(N)(=O)=O)cc2)c2c(-c3ccccc3)csc2n1 [Example 1.57, 4-((2-Amino-5-phenylthieno[2,3-d]pyrimidin-4-yl)aminomethyl)benzenesulfonamide]	0.1 to 1 µM	< 0.1 µM
NS(=O)(=O)c1ccc(CNc2nc(NCc3ccccc3)nc3scc(-c4ccccc4)c23)cc1 [Example 1.41, 4-(((2-(Benzylamino)-5-phenylthieno[2,3-d]pyrimidin-4-yl)amino)methyl)-benzenesulfonamide]	0.1 to 1 µM	< 0.1 µM
Cn1ncc2c(NCc3ccc(S(N)(=O)=O)cc3)cc(N)nc21 [Example 2.78, 4-(((6-Amino-1-methyl-1H-pyrazolo[3,4-b]pyridin-4-yl)amino)methyl)-benzenesulfonamide]	0.1 to 1 µM	0.1 to 1 µM
NS(=O)(=O)c1ccc(CNc2nc(-c3cccnc3)nc3scc(-c4ccccc4)c23)s1 [Example 1.30, 5-(((5-Phenyl-2-(pyridin-3-yl)thieno[2,3-d]pyrimidin-4-yl)amino)methyl)thiophene-2-sulfonamide]	> 20 µM	1 to 20 µM
Cn1nc(Br)c2c(NCc3ccc(S(N)(=O)=O)cc3)nc(Cl)nc21 [Example 2.87, 4-((3-Bromo-6-chloro-1-methyl-1H-pyrazolo[3,4-d]pyrimidin-4-yl)aminomethyl)-benzenesulfonamide]	< 0.1 µM	< 0.1 µM
CSc1nc(NCc2ccc(S(N)(=O)=O)cc2)c2cnn(C)c2n1 [Example 2.107, 4-((1-Methyl-6-(methylsulfanyl)-1H-pyrazolo[3,4-d]pyrimidin-4-yl)aminomethyl)-benzenesulfonamide]	< 0.1 µM	< 0.1 µM
Cn1ncc2c(NCc3ccc(S(N)(=O)=O)cn3)ncnc21 [Example 2.53, 6-(((1-Methyl-1H-pyrazolo[3,4-d]pyrimidin-4-yl)amino)methyl)pyridine-3-sulfonamide]	> 20 µM	0.1 to 1 µM
CCn1ncc2c(NCc3ccc(S(N)(=O)=O)cc3)ccnc21 [Example 2.122, 4-((1-Ethyl-1H-pyrazolo[3,4-b]pyridin-4-yl)aminomethyl)benzenesulfonamide]	1 to 20 µM	< 0.1 µM
Cn1ncc2c(NCc3ccc(S(N)(=O)=O)cc3)cc(NCCO)nc21 [Example 2.81, 4-(((6-((2-Hydroxyethyl)amino)-1-methyl-1H-pyrazolo[3,4-b]pyridin-4-yl)amino)methyl)-benzenesulfonamide]	1 to 20 µM	1 to 20 µM
Cc1cc(CNc2nc(-c3ccccn3)nc3scc(-c4ccccc4)c23)ccc1S(N)(=O)=O [Example 1.19, 2-Methyl-4-(((5-phenyl-2-(pyridin-2-yl)thieno[2,3-d]pyrimidin-4-yl)amino)methyl)-benzenesulfonamide]	0.1 to 1 µM	< 0.1 µM
Cc1nsc2c(=O)n(Cc3ccc(S(N)(=O)=O)cc3)cnc12 [Example 3.60, 4-((3-Methyl-7-oxoisothiazolo[4,5-d]pyrimidin-6(7H)-yl)methyl)benzenesulfonamide]	1 to 20 µM	1 to 20 µM
Cn1ncc2c(N3CCC(NCCCc4ccncc4)CC3)nc(-c3ccccn3)nc21 [Example 2.20, 1-(1-Methyl-6-(pyridin-2-yl)-1H-pyrazolo[3,4-d]pyrimidin-4-yl)-N-(3-(pyridin-4-yl)propyl)piperidin-4-amine]	> 20 µM	> 20 µM
Cn1ncc2c(NCc3ccc(S(N)(=O)=O)cc3F)cc(Cl)nc21 [Example 2.143, 4-(((6-Chloro-1-methyl-1H-pyrazolo[3,4-b]pyridin-4-yl)amino)methyl)-3-fluorobenzenesulfonamide]	< 0.1 µM	< 0.1 µM
Cc1csc2c(N3CCC(NCCCc4ccncc4)CC3)nc(N3CCN(C)CC3)nc12 [Example 3.53, 1-(7-Methyl-2-(4-methylpiperazin-1-yl)thieno[3,2-d]pyrimidin-4-yl)-N-(3-(pyridin-4-yl)propyl)piperidin-4-amine]	> 20 µM	> 20 µM
Cc1csc2c(N3CCC(NCCCc4cccnc4)CC3)ncnc12 [Example 3.26, 1-(7-Methylthieno[3,2-d]pyrimidin-4-yl)-N-(3-(pyridin-3-yl)propyl)piperidin-4-amine]	> 20 µM	0.1 to 1 µM
Cn1ncc2c(NCc3ccc(S(N)(=O)=O)cc3)cc(N3CCOCC3)nc21 [Example 2.82, 4-(((1-Methyl-6-morpholino-1H-pyrazolo[3,4-b]pyridin-4-yl)amino)methyl)-benzenesulfonamide]	1 to 20 µM	1 to 20 µM
CCNc1cc(NCc2ccc(S(N)(=O)=O)cc2)c2cnn(C)c2n1 [Example 2.75, 4-(((6-(Ethylamino)-1-methyl-1H-pyrazolo[3,4-b]pyridin-4-yl)amino)methyl)-benzenesulfonamide]	1 to 20 µM	0.1 to 1 µM
NS(=O)(=O)c1ccc(CNc2ncnc3scc(-c4ccccc4)c23)s1 [Example 1.28, 5-(((5-Phenylthieno[2,3-d]pyrimidin-4-yl)amino)methyl)thiophene-2-sulfonamide]	> 20 µM	1 to 20 µM
Cc1csc2c(N3CCC(NCCc4ccc(F)cc4)CC3)ncnc12 [Example 3.44, N-(4-Fluorophenethyl)-1-(7-methylthieno[3,2-d]pyrimidin-4-yl)piperidin-4-amine]	> 20 µM	0.1 to 1 µM
Cc1csc2c(N3CCC(NCCCc4ccncc4F)CC3)ncnc12 [Example 3.40, N-(3-(3-Fluoropyridin-4-yl)propyl)-1-(7-methylthieno[3,2-d]pyrimidin-4-yl)piperidin-4-amine]	> 20 µM	0.1 to 1 µM
Cn1ncc2c(NCc3ccc(S(N)(=O)=O)c(Cl)c3)ncnc21 [Example 2.4, 2-Chloro-4-(((1-methyl-1H-pyrazolo[3,4-d]pyrimidin-4-yl)amino)methyl)-benzenesulfonamide]	1 to 20 µM	0.1 to 1 µM
NS(=O)(=O)c1ccc(CNc2nc(NCCO)nc3scc(-c4ccccc4)c23)cc1 [Example 1.50, 4-((2-(2-Hydroxyethylamino)-5-phenylthieno[2,3-d]pyrimidin-4-yl)aminomethyl)-benzenesulfonamide]	< 0.1 µM	< 0.1 µM
Cc1ccccc1CCCNC1CCN(c2ncnc3c(C)csc23)CC1 [Example 3.16, 1-(7-Methylthieno[3,2-d]pyrimidin-4-yl)-N-(3-(o-tolyl)propyl)piperidin-4-amine]	> 20 µM	0.1 to 1 µM
CCn1ncc2c(NCc3ccc(S(N)(=O)=O)cc3)nc(OCCC(C)C)nc21 [Example 2.102, 4-((1-Ethyl-6-(3-methylbutoxy)-1H-pyrazolo[3,4-d]pyrimidin-4-yl)aminomethyl)-benzenesulfonamide]	0.1 to 1 µM	< 0.1 µM
Cc1noc2ncnc(N3CCC(NCCCc4ccc(F)cc4)CC3)c12 [Example 2.57, N-(3-(4-Fluorophenyl)propyl)-1-(3-methylisoxazolo[5,4-d]pyrimidin-4-yl)piperidin-4-amine]	> 20 µM	> 20 µM
